Assay results published in patent US11629171B2, “Beta-hairpin peptidomimetics” (POLYPHOR AG, priority 2017, dated 2023).
Converted amounts (≈) assume the structure as drawn. Where a SMILES comes first, the peptide text is derived from it. Bridges are numbered along the chain shown (N, C = ends). Roman numbers before positions name the chains, in order. [ ]: non-standard residue; d: D form. Tle = CC(C)(C)[C@H](N)C(=O)O; dDab = NCC[C@@H](N)C(=O)O; hSer = N[C@@H](CCO)C(=O)O; Orn = NCCC[C@H](N)C(=O)O; Dab = NCC[C@H](N)C(=O)O; Dap = NC[C@H](N)C(=O)O

Key:
Type in all cases: cell-based
[1] = system: human red blood cells (hRBC); experiment: Hemolysis; conditions: red cells of human, 1 h, 200
Outline: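 First, fresh human erythrocytes are washed in PBS; next, they are incubated at 20% (v/v) with compound at 200 μg/mL for 1 h at 37° C. Finally, centrifuged supernatants are diluted and OD540 is taken relative to the Triton X-100 lysis control.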

[2] = system: Acinetobacter baumannii 872842; conditions: 872842
Description: (§1) The in vitro antimicrobial activities of the peptides were determined in 96-well plates (Greiner, polystyrene) by the standard CLSI broth microdilution method (Clinical and Laboratory Standards Institute 2014. Performance standards for antimicrobial susceptibility testing, 24th informational supplement. Approved standard CLSI M100-S24; Clinical and Laboratory Standards Institute, Wayne, Pa.). The following microorganisms were used to determine antibiotic activity of the peptides: Escherichia coli ATCC 25922, Klebsiella pneumoniae SSI #3010^a), Acinetobacter baumannii DSM 30008, Pseudomonas aeruginosa ATCC 27853 and the clinical isolates Escherichia coli 926415^b), Klebsiella pneumoniae 968733^b), Acinetobacter baumannii 872842^b), Enterobacter cloacae 848840^b) and Escherichia coli MCR-1 Af45^c). Before preparation of inocula, Escherichia coli MCR-1 Af45 was subcultured on Mueller-Hinton II (MH-cation adjusted) agar containing 2 μg/mL colistin. ^a) Obtained from Statens Serum Institut (SSI), Copenhagen, Denmark^b) Obtained from International Health Management Associates, Inc. (IHMA Europe Sàrl), Epalinges, Switzerland^c) Obtained from Prof. Patrice Nordmann, University of Fribourg, Fribourg, Switzerland
(§2) Inocula of the microorganisms were diluted into Mueller-Hinton II (MH-cation adjusted) broth and compared with a 0.5 McFarland standard to give appr. 10^6 colony forming units (CFU)/mL. Aliquots (90 μL) of inoculum were added to 10 μL of MH-II broth+P-80 (Polysorbate 80, 0.002% final concentration, v/v) containing the peptide in serial two-fold dilutions. Antimicrobial activities of the peptides were expressed as the minimal inhibitory concentration (MIC) in μg/mL at which no visible growth was observed after 18-20 hours of incubation at 35° C.

[3] = system: Enterobacter cloacae 848840; conditions: 848840
Description: as §1, §2

[4] = system: Escherichia coli 926415; conditions: 926415
Description: as §1, §2

[5] = system: Pseudomonas aeruginosa ATCC 27853; conditions: ATCC 27853
Description: as §1, §2

[6] = system: Klebsiella pneumoniae 968733; conditions: 968733
Description: as §1, §2

[7] = system: Escherichia coli ATCC 25922; conditions: ATCC 25922
Description: as §1, §2

[8] = system: Acinetobacter baumannii DSM 30008; conditions: DSM 30008
Description: as §1, §2

[9] = system: Klebsiella pneumoniae SSI #3010; conditions: SSI #3010
Description: as §1, §2

Structure (SMILES)	Hemolysis at 200 μg/mL [1] [%]	MIC [2] [µg/mL]	MIC [3] [µg/mL]	MIC [4] [µg/mL]	MIC [5] [µg/mL]	MIC [6] [µg/mL]	MIC [7] [µg/mL]	MIC [8] [µg/mL]	MIC [9] [µg/mL]
CC(=O)N[C@H](C(=O)N[C@H]1CCCNC(=O)[C@@H](Cc2ccc(O)cc2)NC(=O)[C@H](C(C)(C)C)NC(=O)[C@H](CO)NC(=O)[C@H](Cc2c[nH]c3ccccc23)NC(=O)[C@H](CCO)NC(=O)[C@@H](CCN)NC(=O)[C@H](CCC(=O)N[C@@H](CCN)C(=O)N[C@H](C(=O)N[C@@H](CN)C(=O)N[C@H]2CCNC(=O)[C@H]([C@@H](C)O)NC(=O)[C@H](CCN)NC(=O)[C@H](CCN)NC(=O)[C@H](CC(C)C)NC(=O)[C@@H](CC(C)C)NC(=O)[C@H](CCN)NC2=O)[C@@H](C)O)NC(=O)[C@H](CO)NC(=O)[C@H](Cc2ccc(O)cc2)NC1=O)C(C)C [Ex. 26] (I: Ac-V[Orn]YSE[dDab][hSer]WS[Tle][dY] / II: [Dab]T[Dap][Dab][Dab][dL]L[Dab][Dab]T; lactam I:2-I:C, II:4-II:C; amide I:5-II:N)	1	0.125 (≈ 0.0525 µM)	0.25 (≈ 0.105 µM)	0.125 (≈ 0.0525 µM)	0.25 (≈ 0.105 µM)	0.25 (≈ 0.105 µM)	0.0625 (≈ 0.0262 µM)	0.03125 (≈ 0.0131 µM)	0.125 (≈ 0.0525 µM)
CC(=O)N[C@H](C(=O)N[C@H]1CCCNC(=O)[C@@H](C(C)C)NC(=O)[C@H](C(C)(C)C)NC(=O)[C@H](CO)NC(=O)[C@H](Cc2c[nH]c3ccccc23)NC(=O)[C@H](CCO)NC(=O)[C@@H](CCN)NC(=O)[C@H](CCC(=O)N[C@@H](CCN)C(=O)N[C@H](C(=O)N[C@@H](CN)C(=O)N[C@H]2CCNC(=O)[C@H]([C@@H](C)O)NC(=O)[C@H](CCN)NC(=O)[C@H](CCN)NC(=O)[C@H](CC(C)C)NC(=O)[C@@H](CC(C)C)NC(=O)[C@H](CCN)NC2=O)[C@@H](C)O)NC(=O)[C@H](CO)NC(=O)[C@H](Cc2ccc(O)cc2)NC1=O)C(C)C [Ex. 27] (I: Ac-V[Orn]YSE[dDab][hSer]WS[Tle][dV] / II: [Dab]T[Dap][Dab][Dab][dL]L[Dab][Dab]T; lactam I:2-I:C, II:4-II:C; amide I:5-II:N)	<1	0.125 (≈ 0.0539 µM)	0.25 (≈ 0.108 µM)	1 (≈ 0.431 µM)	0.5 (≈ 0.216 µM)	1 (≈ 0.431 µM)	0.0625 (≈ 0.027 µM)	0.0625 (≈ 0.027 µM)	0.25 (≈ 0.108 µM)
CC(=O)N[C@H](C(=O)N[C@H]1CCCNC(=O)[C@@H](CCN)NC(=O)[C@H](C(C)(C)C)NC(=O)[C@H](CO)NC(=O)[C@H](Cc2c[nH]c3ccccc23)NC(=O)[C@H](CCO)NC(=O)[C@@H](CCN)NC(=O)[C@H](CCC(=O)N[C@@H](CCN)C(=O)N[C@H](C(=O)N[C@@H](CN)C(=O)N[C@H]2CCNC(=O)[C@H]([C@@H](C)O)NC(=O)[C@H](CCN)NC(=O)[C@H](CCN)NC(=O)[C@H](CC(C)C)NC(=O)[C@@H](CC(C)C)NC(=O)[C@H](CCN)NC2=O)[C@@H](C)O)NC(=O)[C@H](CO)NC(=O)[C@H](Cc2ccc(O)cc2)NC1=O)C(C)C [Ex. 28] (I: Ac-V[Orn]YSE[dDab][hSer]WS[Tle][dDab] / II: [Dab]T[Dap][Dab][Dab][dL]L[Dab][Dab]T; lactam I:2-I:C, II:4-II:C; amide I:5-II:N)	<1	4 (≈ 1.72 µM)	0.125 (≈ 0.0539 µM)	8 (≈ 3.45 µM)	0.25 (≈ 0.108 µM)	8 (≈ 3.45 µM)	0.125 (≈ 0.0539 µM)	0.125 (≈ 0.0539 µM)	0.125 (≈ 0.0539 µM)
